Test [1] has as its system KRAS G4 (DNA, G4) AGGGCGGTGTGGGAAGAGGGAAGAGGGGGAGGCAG
Briefly: 13C NMR. As to conditions: 50 mM KCl; 25 mM Tris-d11 pH 6.6, 10% DMSO-d6, 293 K.

The test system of test [2] is 5'-biotin-TEG KRAS (DNA, G4) AGGGCGGTGTGGGAAGAGGGAAGAGGGGGAGGCAG
As to the kind of experiment: SPR, Langmuir kinetic fit. As to conditions: 30 mM KCl; 10 mM Tris pH 6.6, 3% DMSO, 0.01% Tween-20.

Test [3] relates to dsDNA (DNA, duplex) CAATCGGATCGAATTCGATCCGATTG
As to the kind of experiment: CD thermal melt. As to conditions: 30 mM KCl; 10 mM Tris pH 6.6, 1% DMSO; 10 μM DNA, 40 μM compound.

The test system of test [4] is KRAS G4 (DNA, G4) AGGGCGGTGTGGGAAGAGGGAAGAGGGGGAGGCAG
As to the kind of experiment: CD thermal melt. As to conditions: 30 mM KCl; 10 mM Tris pH 6.6, 1% DMSO; 10 μM DNA, 40 μM compound.

The test system of test [5] is shortened KRAS oligonucleotide (DNA, G4) AGGGCGGTGTGGGAATAGGGAA
As to the kind of experiment: WaterLOGSY NMR. As to conditions: 50 mM KCl, 25 mM Tris-d11 pH 6.6, 10% DMSO-d6, 293 K, 100 μM compound, 1 μM DNA.

For test [6] the test system is unchanged. As to the kind of experiment: 1H NMR titration. As to conditions: 50 mM KCl, 100 μM DNA.
The test system of test [7] is Alexafluor647-KRAS (DNA, G4) AGGGCGGTGTGGGAAGAGGGAAGAGGGGGAGGCAG
As to the kind of experiment: fluorescence intensity titration. As to conditions: 50 mM KCl, 25 mM Tris pH 6.4, 2-3% DMSO, room temperature; for KDapp: apparent.

For test [8], the system named is Alexafluor647-VEGF (DNA, G4) CGGGGCGGGCCGGGGGCGGGGT
As to the kind of experiment: small molecule microarray. As to conditions: 100 mM KCl; PBST, room temperature, 500 nM DNA; immobilised compound.

For test [9], the system named is Alexafluor647-MYC (DNA, G4) AGGGTGGGGAGGGTGGGG
Briefly: small molecule microarray. As to conditions: 100 mM KCl; PBST, room temperature, 500 nM DNA; immobilised compound.

Test [10] relates to Alexafluor647-c-KIT (DNA, G4) AGGGAGGGCGCTGGGAGGAGGG
As to the kind of experiment: small molecule microarray. As to conditions: 100 mM KCl; PBST, room temperature, 500 nM DNA; immobilised compound.

Test [11] has as its system Alexafluor647-AKTIP (RNA, G4) GGGGUGGGGCGGGGCGGGG
As to the kind of experiment: small molecule microarray. As to conditions: 100 mM KCl; PBST, room temperature, 500 nM RNA; immobilised compound.

The subject of test [12] is Alexafluor647-MYB (DNA, G4) GGAGGAGGAGGTCACGGAGGAGGAGGAGAAGGAGGAGGAGGA
Briefly: small molecule microarray. As to conditions: 100 mM KCl; PBST, room temperature, 500 nM DNA; immobilised compound.

Test [13] concerns Alexafluor647-BCl2 (DNA, G4) AGGGGCGGGCGCGGGAGGAAGGGGGCGGGA
Briefly: small molecule microarray. As to conditions: 100 mM KCl; PBST, room temperature, 500 nM DNA; immobilised compound.

Test [14] has as its system Alexafluor647-KRAS (DNA, G4) AGGGCGGTGTGGGAAGAGGGAAGAGGGGGAGGCAG
Briefly: small molecule microarray. As to conditions: 100 mM KCl; PBST, room temperature, 500 nM DNA; immobilised compound.

Test [15] relates to Alexafluor647-RB1 (DNA, G4) CGGGGGGTTTTGGGCGGC
Briefly: small molecule microarray. As to conditions: 100 mM KCl; PBST, room temperature, 500 nM DNA; immobilised compound.

Test [16] concerns 5'-biotin-TEG KRAS (DNA, G4) AGGGCGGTGTGGGAAGAGGGAAGAGGGGGAGGCAG
Briefly: SPR, steady state. As to conditions: 30 mM KCl; 10 mM Tris pH 6.6, 3% DMSO, 0.01% Tween-20; apparent; text b35 prints 12.0 ± 0.5. In general terms: In SPR one partner is held on a chip, and binding of the other changes the refractive index at the surface.

Test [17] shares this test system. As to the kind of experiment: SPR. As to conditions: 30 mM KCl; 10 mM Tris pH 6.6, 3% DMSO, 0.01% Tween-20; no binding at 20 μM.

Each structure is given as a SMILES string.

What is called KD is the concentration at which binding is half-saturated. Low values mean higher affinity, high ones lower affinity. Usually ΔTm stands for the change in melting temperature against a reference sample.

As for `N=C(NCCCCCCNC(=N)NC(=N)Nc1ccc(Cl)cc1)NC(=N)Nc1ccc(Cl)cc1`, the binding result in [1] is listed as “yes”; in [3], “no”; in test [5], “yes”; in test [6] (25 mM Tris-d11 pH 6.6, 10% D2O, 5% DMSO-d6, 293 K) it was “yes”. For the same compound, the dissociation constant (KD) came to 1.1 ± 0.5 µM in [2] and 0.0055 ± 0.0029 mM in [7] (50 nM DNA). In addition, in test [4], the shift in melting temperature (ΔTm) is 13.0 ± 0.7 °C.

Consider `CN[C@H](C(=O)O)C(C)C`, for which the binding result in [5] (internal control) is “no”.

In the case of `NCCOc1cc(C(=O)Nc2cc(OCCN)c3ccccc3n2)nc(C(=O)Nc2cc(OCCN)c3ccccc3n2)c1`, the binding entry in test [8], in test [9], in test [10], in [11], in test [12] and in [13] was “yes” each time. For the same compound, the binding result in test [14] and in test [15] was “yes” in each case. Moreover, the ΔTm in test [4] amounted to 31.6 ± 2.6 °C.

For the compound `CCCCC(CC)CNC(=N)NC(=N)NCCCCCCNC(=N)NC(=N)NCC(CC)CCCC` (stereo not shown), the values for the KDapp in [16] and in [7] (50 nM DNA) were 12.1 ± 0.5 µM and 19.3 ± 11.0 µM, respectively. Moreover, the ΔTm in test [4] turned out to be 7.1 ± 0.6 °C. Also, the binding entry in test [6] (25 mM Tris-d11 pH 6.6, 10% DMSO-d6, 293 K, moderate, nonspecific) is “yes”.

For `CC(C)NC(=N)NC(=N)Nc1ccc(Cl)cc1`, the ΔTm in [4] was < 1 °C. In addition, the KD in test [17] is > 20 µM. Also, in test [6] (25 mM Tris-d11 pH 6.6, 10% DMSO-d6, 293 K, weak, nonspecific), the binding entry is “weak”. Further, the KDapp in test [7] (only minimal fluorescence changes) was > 200 µM.

Source of the values: article PMC5888870 (2018).
